According to patent US6617131B2, “Nucleic acid molecule encoding the potassium channel protein, KCNQ5” (Aventis Pharma Deutschland GmbH, priority 2000, dated 2003):

How the values were obtained:
hKCNQ5 = biological target: T1, hKCNQ5 (Homo sapiens, UniProt Q9NR82); assay: two-electrode voltage-clamp of KCNQ5 currents in Xenopus oocytes; format: cell-based
T1 construct: A composite full-length cDNA construct was assembled from two overlapping cDNA clones and subcloned into the Xenopus expression vector pSGEM; expressed in transfected cells; host or cells: Xenopus laevis oocytes injected with in vitro transcribed capped cRNA (vector pSGEM)
Text: A, representative current traces from a KCNQ5 injected oocyte subjected to a pulse protocol that stepped the membrane potential from holding potential (−100 mV) to test pulses from −100 to +50 mV and back to holding potential. B, I-V relationships for KCNQ5 expressing oocytes (n=12) recorded using the protocol in A. C, tail current reversal potential of KCNQ 5 currents as a function of extracellular K^+ concentration. The dashed line is drawn according to the Nernst equation for a perfectly selective K^+ channel (n=5). D, effects of TEA, clofilium, quinidine, and chromanol 293 B on KCNQ 5 current. Superimposed currents were obtained during a 3 s depolarizing step from −100 mV to 0 mV, during the same experiment. […]
Xenopus laevis oocytes were obtained from tricaine anaesthetized animals. […] Macroscopic currents were recorded 2-4 days after injection. […]
The possible function of KCNQ5 as a potassium channel was addressed by electrophysiological analysis of Xenopus oocytes injected with KCNQ5 cRNA transcribed in vitro. Two to four days after injection novel currents were detected that were not observed in water-injected control oocytes. […] The two components of deactivation were determined at a repolarizing voltage of −100 mV following a 3s depolarizing step to +40 mV. […]

KCNQ3 = KCNQ3 (Rattus norvegicus, UniProt O88944); settings: as reported; cited from earlier work
KCNQ2 = KCNQ2 (Homo sapiens, UniProt O43526); settings: cited from earlier work
Sequence of KCNQ2 (O43526 whole entry): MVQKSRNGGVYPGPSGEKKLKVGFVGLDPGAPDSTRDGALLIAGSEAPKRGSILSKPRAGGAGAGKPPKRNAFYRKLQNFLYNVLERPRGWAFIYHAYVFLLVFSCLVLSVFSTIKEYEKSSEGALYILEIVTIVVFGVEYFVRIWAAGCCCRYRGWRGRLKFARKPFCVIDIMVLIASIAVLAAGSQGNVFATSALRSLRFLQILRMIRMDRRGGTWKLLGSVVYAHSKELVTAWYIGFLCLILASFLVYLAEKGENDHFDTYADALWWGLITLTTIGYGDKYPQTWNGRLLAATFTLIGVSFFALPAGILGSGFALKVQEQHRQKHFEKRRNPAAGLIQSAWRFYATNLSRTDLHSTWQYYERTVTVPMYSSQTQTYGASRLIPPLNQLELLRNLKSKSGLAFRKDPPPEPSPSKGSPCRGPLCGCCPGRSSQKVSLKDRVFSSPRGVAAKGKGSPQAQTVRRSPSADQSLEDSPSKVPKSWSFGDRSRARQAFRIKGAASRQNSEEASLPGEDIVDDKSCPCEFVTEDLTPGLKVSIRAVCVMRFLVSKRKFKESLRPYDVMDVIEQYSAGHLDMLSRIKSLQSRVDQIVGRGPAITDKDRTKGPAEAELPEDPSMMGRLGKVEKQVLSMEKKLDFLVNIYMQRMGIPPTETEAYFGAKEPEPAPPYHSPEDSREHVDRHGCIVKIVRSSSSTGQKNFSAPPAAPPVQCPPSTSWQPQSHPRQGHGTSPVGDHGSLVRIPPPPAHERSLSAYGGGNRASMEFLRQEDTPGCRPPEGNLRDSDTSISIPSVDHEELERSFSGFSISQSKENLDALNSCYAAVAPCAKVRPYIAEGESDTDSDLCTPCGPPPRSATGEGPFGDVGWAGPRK

T1 sequence (Q9NR82 whole entry): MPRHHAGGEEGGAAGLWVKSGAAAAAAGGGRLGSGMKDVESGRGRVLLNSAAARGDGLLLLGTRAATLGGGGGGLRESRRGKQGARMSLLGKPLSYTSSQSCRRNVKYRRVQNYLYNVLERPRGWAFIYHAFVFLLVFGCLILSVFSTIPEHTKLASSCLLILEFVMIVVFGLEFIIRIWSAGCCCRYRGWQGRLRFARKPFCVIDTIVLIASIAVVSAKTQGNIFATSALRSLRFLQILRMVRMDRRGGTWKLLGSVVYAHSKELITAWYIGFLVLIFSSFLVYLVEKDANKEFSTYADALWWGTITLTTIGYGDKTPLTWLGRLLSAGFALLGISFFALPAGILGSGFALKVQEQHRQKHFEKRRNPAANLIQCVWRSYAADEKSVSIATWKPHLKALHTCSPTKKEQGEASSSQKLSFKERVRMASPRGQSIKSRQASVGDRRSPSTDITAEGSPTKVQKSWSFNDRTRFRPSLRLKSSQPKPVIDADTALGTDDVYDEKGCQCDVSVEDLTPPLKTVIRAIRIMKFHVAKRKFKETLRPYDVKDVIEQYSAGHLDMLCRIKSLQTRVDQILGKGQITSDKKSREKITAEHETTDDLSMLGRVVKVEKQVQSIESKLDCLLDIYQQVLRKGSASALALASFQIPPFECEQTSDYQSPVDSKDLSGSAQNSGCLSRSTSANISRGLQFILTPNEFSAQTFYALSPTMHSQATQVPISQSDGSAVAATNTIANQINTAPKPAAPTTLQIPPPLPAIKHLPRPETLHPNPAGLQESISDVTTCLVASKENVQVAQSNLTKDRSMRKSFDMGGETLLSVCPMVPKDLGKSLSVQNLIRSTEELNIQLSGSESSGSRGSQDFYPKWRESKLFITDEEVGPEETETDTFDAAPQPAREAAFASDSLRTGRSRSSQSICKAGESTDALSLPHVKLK
Sequence of KCNQ3 (O88944 whole entry): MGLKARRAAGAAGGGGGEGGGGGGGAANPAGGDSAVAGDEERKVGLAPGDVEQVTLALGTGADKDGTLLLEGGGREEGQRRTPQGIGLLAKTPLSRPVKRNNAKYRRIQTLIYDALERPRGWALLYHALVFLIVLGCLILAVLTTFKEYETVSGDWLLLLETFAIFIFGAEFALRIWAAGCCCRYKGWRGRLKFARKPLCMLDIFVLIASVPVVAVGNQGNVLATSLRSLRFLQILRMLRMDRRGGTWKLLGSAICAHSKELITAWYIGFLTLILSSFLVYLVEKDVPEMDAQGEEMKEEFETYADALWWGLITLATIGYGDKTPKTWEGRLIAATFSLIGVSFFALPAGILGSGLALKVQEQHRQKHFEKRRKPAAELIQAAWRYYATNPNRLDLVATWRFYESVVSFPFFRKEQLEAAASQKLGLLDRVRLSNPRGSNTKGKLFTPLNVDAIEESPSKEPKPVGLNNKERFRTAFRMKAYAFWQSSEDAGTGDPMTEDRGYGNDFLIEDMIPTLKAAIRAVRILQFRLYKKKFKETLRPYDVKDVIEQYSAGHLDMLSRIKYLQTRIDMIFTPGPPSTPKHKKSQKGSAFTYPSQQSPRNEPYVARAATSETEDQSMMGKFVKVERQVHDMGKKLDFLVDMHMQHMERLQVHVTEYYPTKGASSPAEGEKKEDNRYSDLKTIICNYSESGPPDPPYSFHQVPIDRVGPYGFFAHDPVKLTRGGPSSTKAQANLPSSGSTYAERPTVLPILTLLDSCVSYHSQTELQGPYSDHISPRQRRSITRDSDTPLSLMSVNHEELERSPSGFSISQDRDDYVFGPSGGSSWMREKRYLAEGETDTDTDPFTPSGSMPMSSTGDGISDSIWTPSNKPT

CC[N+](CC)(CC)CC [TEA, tetraethylammonium]
sensitivity of KCNQ5 currents to the blocker (hKCNQ5): insensitive
sensitivity of KCNQ3 to the blocker (KCNQ3): insensitive
sensitivity of KCNQ2 to the blocker (KCNQ2): high sensitivity

C=C[C@H]1C[N@@]2CC[C@H]1C[C@@H]2[C@@H](O)c1ccnc2ccc(OC)cc12 [quinidine]
block of KCNQ5 currents (hKCNQ5; 300 μM, 3 s step from −100 mV to 0 mV): 50%

CCCCCCC[N+](CC)(CC)CCCCc1ccc(Cl)cc1 [Clofilium]
inhibition of KCNQ2 (KCNQ2; 10 μM): little inhibition
